Patent US5476944A, “Derivatives of cyclic phenolic thioethers” (G. D. Searle & Co., priority 1994, dated 1995)

Tests used:
Format in all cases: biochemical
COX-II = target: T1, COX-II (Homo sapiens, UniProt P35354); test: Human Enzyme Assay, recombinant COX-II (PGE2 ELISA)
T1 construct: made in house; host or cells: SF9 insect cells, recombinant baculovirus (pVL1393); coding fragment from Cayman Chemical
T1 sequence (P35354 18-604): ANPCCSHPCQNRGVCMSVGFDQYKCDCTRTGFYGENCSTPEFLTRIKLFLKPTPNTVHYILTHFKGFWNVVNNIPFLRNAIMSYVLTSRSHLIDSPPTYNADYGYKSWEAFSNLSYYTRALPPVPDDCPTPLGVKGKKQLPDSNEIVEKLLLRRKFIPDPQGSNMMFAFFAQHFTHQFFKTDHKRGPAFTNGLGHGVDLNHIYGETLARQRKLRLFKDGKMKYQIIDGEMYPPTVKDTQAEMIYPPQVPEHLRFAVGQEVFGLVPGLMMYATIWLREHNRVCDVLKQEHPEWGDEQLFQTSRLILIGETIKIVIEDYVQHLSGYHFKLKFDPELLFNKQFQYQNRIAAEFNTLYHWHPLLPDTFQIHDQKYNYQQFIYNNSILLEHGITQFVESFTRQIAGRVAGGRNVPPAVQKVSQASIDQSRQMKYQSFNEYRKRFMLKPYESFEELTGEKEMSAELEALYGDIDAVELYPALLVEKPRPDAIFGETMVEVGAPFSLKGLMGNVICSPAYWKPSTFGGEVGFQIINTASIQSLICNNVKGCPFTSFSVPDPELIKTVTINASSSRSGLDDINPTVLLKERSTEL
Protocol: (§1) The compounds of the invention are evaluated with respect to COX-I and COX-II activity in vitro using an enzyme based assay according to the following assay procedure.
(§2) (a) Preparation of Recombinant COX Baculoviruses
(§3) A 2.0 kb fragment containing the coding region for either human or murine COX-I (Caymen Chemical, Ann Arbor, Mich.), or human or murine COX-II (Caymen Chemical, Ann Arbor, Mich.), was cloned into a BamH1 site of the baculovirus transfer vector pVL1393 (Invitrogen, Palo Alto, Calif.) to generate a baculovirus transfer vector. Recombinant baculoviruses were isolated by transfecting 4 μg of baculovirus transfer vector DNA into SF9 cells (2×10e8) (Invitrogen, Palo Alto, Calif.) along with 200 ng of linearized bacium by the phosphate method. See M. D. Summers et al., "A Manual of Methods for Baculovirus Vectors and Insect Cell Culture Procedure," TEXAS AGRICULTURE EXPERIMENTAL STATION BULLETIN, No. 1555 (1987), which is incorporated herein by reference. Recombinant viruses were purified by three rounds of plaque purification, and high titer (10e7-10e8 pfu/ml) stocks of virus were prepared. For large scale production, SF9 insect cells (Invitrogen, Palo Alto, Calif.) were infected in 10 liter fermentors (0.5×10^6 /ml) with the recombinant baculovirus stock, such that the multiplicity of infection was 0.1. After 72 hours, the cells were centrifuged and the cell pellet was homogenized in Tris/Sucrose (50 mM: 25%, pH 8.0) containing 1% CHAPS. The homogenate was centrifuged at 10,000×G for 30 minutes, and the resultant supernatant was stored at -80° C. before being assayed for COX activity.
(§4) b. Assay for COX-I and COX-II activity:
(§5) COX activity was assayed as PGE2 formed/μg protein/time using an ELISA (Caymen Chemical, Ann Arbor, Mich.) to detect the prostaglandin E2 released. CHAPS-solubilized insect cell membranes containing the appropriate COX enzyme were incubated in a potassium phosphate buffer (50 mM, pH 8.0) containing phenol (0.5 mM), and heme (1 μM) with the addition of arachidonic acid (10 μM). Compounds of the present invention were pre-incubated with the enzyme for 10-20 minutes prior to the addition of the COX-I and COX-II enzyme substrate arachidonic acid (10 μM). Any reaction between the arachidonic acid and the enzyme was stopped after ten minutes at 37° C./room temperature by transferring 40 μl of reaction mix into […] ELISA buffer and 25 μM indomethacin. The PGE2 formed was measured by standard ELISA technology (Cayman Chemical, Ann Arbor, Mich.).
(§6) The results for this assay, as well as for the next assay (COX-II Cell Fibroblast Assay) are expressed in terms of COX-I or II activity as an IC50 value (50% inhibitory concentration), as defined as the amount of prostaglandin E2 (PGE2) formed per protein per time in response to the enzyme substrate arachidonic acid.

COX-I = target: T2, COX-I (Homo sapiens, UniProt P23219); test: Human Enzyme Assay, recombinant COX-I (PGE2 ELISA)
T2 construct: made in house; host or cells: SF9 insect cells, recombinant baculovirus (pVL1393); coding fragment from Cayman Chemical
Protocol: as §1, §2, §3, §4, §5, §6

5-lipoxygenase = target: T3, 5-lipoxygenase (Rattus norvegicus, UniProt P12527); test: Inhibition of 5-lipoxygenase, in vitro (5-HETE formation, RBL-1 homogenate supernatant); conditions: RBL-1 supernatant
T3 construct: The 100,000×g supernatant fraction of Rat Basophilic Leukemia Cell Homogenate (RBL-1); endogenous in cells; host or cells: RBL-1 (rat basophilic leukemia) cells, 100,000xg supernatant of homogenate
T3 sequence (P12527 1-673): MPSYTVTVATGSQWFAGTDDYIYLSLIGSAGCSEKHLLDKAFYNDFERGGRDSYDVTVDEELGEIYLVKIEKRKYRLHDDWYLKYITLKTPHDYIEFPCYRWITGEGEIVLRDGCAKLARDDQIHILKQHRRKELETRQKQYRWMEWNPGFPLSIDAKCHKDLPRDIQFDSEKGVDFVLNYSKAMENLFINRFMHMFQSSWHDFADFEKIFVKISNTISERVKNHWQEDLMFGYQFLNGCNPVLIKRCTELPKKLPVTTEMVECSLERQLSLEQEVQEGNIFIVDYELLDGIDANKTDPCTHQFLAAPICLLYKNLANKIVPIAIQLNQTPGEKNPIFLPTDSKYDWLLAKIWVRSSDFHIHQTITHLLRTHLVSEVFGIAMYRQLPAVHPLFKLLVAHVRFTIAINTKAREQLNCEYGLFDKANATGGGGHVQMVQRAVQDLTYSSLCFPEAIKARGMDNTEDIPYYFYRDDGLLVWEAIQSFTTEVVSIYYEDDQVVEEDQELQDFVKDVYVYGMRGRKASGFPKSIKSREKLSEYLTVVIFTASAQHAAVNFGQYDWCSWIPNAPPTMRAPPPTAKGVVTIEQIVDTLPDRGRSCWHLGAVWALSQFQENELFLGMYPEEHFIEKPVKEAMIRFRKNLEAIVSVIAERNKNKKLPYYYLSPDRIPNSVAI
Protocol: The compounds of the invention are evaluated with respect to 5-lipoxygenaseinhibition according to the following assay procedure.
Inhibition of 5-lipoxygenase, in vitro:
The 100,000×g supernatant fraction of Rat Basophilic Leukemia Cell Homogenate (RBL-1) serves as a 5-lipoxygenase enzyme source. The enzyme is incubated with [1-^4 C)-arachidonic acid and Ca++ in the presence and absence of test compound. The product of 5-lipoxygenase, 5-hydroxyeicosatetraenoic acid (5-HETE), is separated by thin-layer chromatography and measured by radioactivity. A compound inhibiting 5-HETE synthesis by 30% or more is considered active at that concentration.
For comparison the compound of Formula XX, a known 5-lipoxygenase inhibitor described in U.S. Pat. No. 4,755,524 was used: [drawing 29] (±)[2S*-[[3,5-bis(1,1-dimethylethyl)-4-hydroxyphenyl]thio]-1R*-methylpro poxy]acetic acid.

T2 sequence (P23219 24-599): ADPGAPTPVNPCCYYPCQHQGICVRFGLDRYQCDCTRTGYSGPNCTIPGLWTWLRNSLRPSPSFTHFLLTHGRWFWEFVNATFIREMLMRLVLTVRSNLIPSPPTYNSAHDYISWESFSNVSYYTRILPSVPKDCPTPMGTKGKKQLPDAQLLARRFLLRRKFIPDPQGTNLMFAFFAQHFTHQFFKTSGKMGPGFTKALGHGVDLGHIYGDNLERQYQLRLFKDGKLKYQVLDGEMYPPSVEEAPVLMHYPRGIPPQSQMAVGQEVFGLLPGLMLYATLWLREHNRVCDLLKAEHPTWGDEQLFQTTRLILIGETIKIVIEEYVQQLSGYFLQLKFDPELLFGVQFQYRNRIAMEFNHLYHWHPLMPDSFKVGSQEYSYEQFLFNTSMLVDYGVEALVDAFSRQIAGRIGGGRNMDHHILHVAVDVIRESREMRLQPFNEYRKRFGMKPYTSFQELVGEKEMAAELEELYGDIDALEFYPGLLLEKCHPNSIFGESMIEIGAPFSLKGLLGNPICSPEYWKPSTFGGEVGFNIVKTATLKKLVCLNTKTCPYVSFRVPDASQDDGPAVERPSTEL

SMILES: CC(C)(C)c1cc(S[C@H]2CCCC[C@H]2OCC(=O)O)cc(C(C)(C)C)c1 (racemic) [Example 72, (±)cis-2-[[2-[[3,5-bis(1,1-dimethylethyl)phenyl]thio]cyclohexyl]oxy]acetic acid]
- IC50 (COX-II): 4.11 µM
- IC50 (COX-I): > 100 µM
- IC50 (5-lipoxygenase): > 100 µM
